Results on 13 molecules are retold here after paper PMC7801115, “Preclinical in vitro screening of newly synthesised amidino substituted benzimidazoles and benzothiazoles” (Journal of Enzyme Inhibition and Medicinal Chemistry, 2021).

Data set [1] has as its system HCC827. As to the kind of experiment: BrdU proliferation assay, 2D cell culture. The following applies: Homo sapiens, HCC827, 2D cell culture, ±SD, N = 2. Type of data set: cell-based. On the procedure:
(§1) Cells were grown in 96 well cell star polystyrene plates. 10,000 cells/well were seeded in wells 4 h prior the treatment with different compounds concentrations and incubated for 72 h. A cell viability assay was performed according to the manufacturer’s instruction, using CellTiter 96 aqueous solution, MTS kit (Promega, Madison, WI, USA). After 0.5–2 h of cell incubation with MTS in 2 D cell culture, the plates were read using PE EnVision absorbance at 490 nm. […] Since we prefer homogeneous assays (mix and read procedures) and therefore MTS is more practical (one step less than MTT). MTS is more sensitive and accurate in comparison with MTT assay.
(§2) Proliferation assay was performed using Cell Proliferation ELISA, BrdU (Sigma, St. Louis, MO, USA). Briefly, 48 h hours after compound addition, 10 µM of BrdU was added to each well and incubated for following 24 h. After incubation, single cell suspension was made for 3 D cell culture in the new 96 well plate. Plates were centrifuged and supernatants were removed from each plate (for 2 D and 3 D cell culture) followed by 60 min incubation at 60° C. The rest of the proliferation assay was performed according to the manufacturer instructions.
(§3) Calculation of IC50 data, curves and QC analysis is made by using Excel tools and GraphPadPrism software (La Jolla, CA), v. […] QC criteria parameters (Z', S:B, R2, HillSlope) were checked for every IC50 curve.

Data set [2] relates to NCI-H358. As to the kind of experiment: BrdU proliferation assay, 2D cell culture. Format: cell-based. The following applies: Homo sapiens, NCI-H358, 2D cell culture, ±SD, N = 2. On the procedure:
as §1, §2, §3

Data set [3] is described as follows: Stability in plasma. Format: in vitro ADME. The following applies: 37 °C. Here is the method:
Tested compounds (final concentration of 5 µM, 0.5% DMSO) were incubated for 4 h at 37 °C in human and mouse plasma, respectively. Aliquots were taken at different time points (0, 30, 120 and 240 min) and reaction was terminated by addition of a MeCN/MeOH (2:1) mixture, containing internal standard (diclofenac). Samples were then centrifuged (at 4500 rpm, at 4 °C, for 30 min) and resulting supernatants were subjected to LC-MS/MS analysis. The same procedure was followed for controls used in the assay: propranolol (both species), benfluorex (mouse) and eucatropine (human), respectively.
(§4) All ADME samples were analysed on a Sciex API 4000 or Sciex API4500 Triple Quadrupole Mass Spectrometer (Sciex, Framingham, MA, USA) coupled to a UHPLC System (Shimadzu Nexera X2; Shimadzu, Kyoto, Japan). Samples were injected onto an UPLC column (HALO2 C18, 2.1 × 20 mm, 2 µm or Phenomenex Luna Omega Polar C18, 30 × 2.1 mm, 1.6 µm) and eluted with a gradient at temperature of 50 °C. The mobile phase was composed of acetonitrile (with 0.1% formic acid) and 0.1% formic acid in deionised water. A total run time was 1 or 1.5 min, with the flow rate of 0.7 ml/min (under gradient conditions). A positive ion mode with turbo spray, an ion source temperature of 500 °C and a dwell time of 150 ms were utilised for mass spectrometric detection. Multiple reaction monitoring (MRM) was used at the specific transitions for each compound/control tested: compound 5c: 361.9 → 304.9; compound 5d: 344.8 → 287.9; compound 5e: 349.8 → 292.9; compound 5 g: 350.8 → 293.9; compound 5 h: 344.0 → 286.9; compound 6a: 276.9 → 220.0; compound 5 b: 319.0 → 262.0; compound 6 b: 302.1 → 245.1; compound 6c: 344.9 → 288.0; compound 6d: 333.0 → 276.0; compound 6e: 316.1 → 259.0; compound 6f: 327.1 → 270.0; compound 6 g: 377.1 → 320.1; testosterone: 289.3→ 97.1; propranolol: 260.1 → 182.8; caffeine: 195.2 → 138.1; acebutolol: 337.2 → 116.2, nicardipine: 480.2 → 315.0; verapamil: 455.4 → 165.1; amprenavir: 506.2 → 245.4; diclofenac: 296.1 → 213.7 or 296.2 → 215.3; eucatropine: 292.2 → 109.1; benfluorex: 352.1 → 230.3, and warfarin: 309.2 → 163.2

The test system of data set [4] is HCC827. Nature of the data set: BrdU proliferation assay, 3D cell culture. Format: cell-based. To be noted: Homo sapiens, HCC827, 3D cell culture, ±SD, N = 2. On the procedure:
Cells were grown in 96 well Perfecta 3 D hanging drop plates 5000 cell/well for 4 days until spheres were formed (and checked under the microscope). After sphere formation cells were treated with compounds followed by 72 h incubation. Cell viability assay was performed according to the manufacturer’s instruction, using CellTiter GLO 3 D for 3 D cell culture (Promega); cell incubation was 5 min on the shaker followed by 25 min incubation in the dark. Plates were read using PE EnVision luminescence.
as §2, §3

In data set [5] the test system is MDCKII-hMDR1 cells. Nature of the data set: MDCKII-MDR1 permeability and P-glycoprotein substrate assay. The following applies: without P-gp inhibitor. Format: in vitro ADME, canine cells over-expressing human MDR1. Here is the method: Permeability and P-glycoprotein substrate assessment was done on MDCKII-hMDR1, Madin-Darby canine epithelial cells over-expressing human MDR1 gene, coding for P-glycoprotein.
Cells were prepared for transport studies by seeding on 96-well cell culture inserts (Millipore, MA, USA) in a concentration of 0.25 × 10^6 cells per ml. The cells were fed with fresh medium 24 h post seeding and cultured to confluence for 3 days before use. On the day of experiment, the cell monolayers were washed and equilibrated with transport medium (DPBS, pH 7.4 containing 1% DMSO) with or without P-gp specific inhibitor, elacridar (2 µM) for 45 min (37 °C, 5% CO2, 95% humidity). Test compound solution consisted of test substance (10 μM) in D-PBS medium containing lucifer yellow (100 μM) and 1% DMSO. Transport assays were conducted in apical to basolateral (A2B) and basolateral to apical (B2A) directions, respectively. Monolayers were incubated with the compound solution for 60 min at 37 °C under gentle agitation. Apical and basolateral compartments were sampled at the end of the transport experiment, while donor solutions were also sampled at the beginning of the experiment in order to determine initial concentration. Test substance concentrations in both compartments were determined by LC-MS/MS. There were several controls used in the assay: 1) amprenavir (0.5 μM) served as a low permeable control, being also a P-gp substrate; 2) diclofenac (10 μM) was used as a high permeable control; 3) Lucifer yellow, a fluorescent marker for the paracellular membrane transport, was used as a control of cell monolayer integrity.
as §4

For `c1ccc2sc(-c3nc4cc(C5=NCCCN5)ccc4[nH]3)cc2c1` [Compound 6d, 2-(Benzo[b]thiophen-2-yl)-5(6)–(3,4,5,6-tetrahydropyrimidin-1-ium-2-yl)benzimidazole chloride], the figures for the IC50 in data set [1], in data set [2] and in data set [4] were greater than 50 µM, greater than 50 µM and greater than 100 µM, respectively. Further, the fraction remaining at 4 h, 5 µM worked out at 95% in data set [3] (human plasma) and 92% in data set [3] (mouse plasma).

As for `c1ccc2c(c1)cc(-c1nc3cc(C4=NCCCN4)ccc3[nH]1)c1ccccc12` [Compound 6g, 2-(Phenanthrene-9-yl)-5(6)–(3,4,5,6-tetrahydropyrimidin-1-ium-2-yl)benzimidazole chloride], the IC50 in data set [1] is greater than 50 µM; in data set [2] it was greater than 50 µM; in data set [4] it was greater than 100 µM. For the same molecule, the amount remaining at 4 h, 5 µM in data set [3] (human plasma) is 85%; in data set [3] (mouse plasma), 81%.

Consider `Cl.c1ccc2cc(-c3nc4ccc(C5=NCCCN5)cc4s3)ccc2c1` [Compound 5h, 2-(Naphthalene-2-yl)-6–(3,4,5,6-tetrahydropyrimidin-1-ium-2-yl)benzothiazole chloride], for which the melting point was greater than 300 °C. This molecule also yielded an IC50 in data set [1] of 9 ± 0.83 µM. This molecule yielded an IC50 in data set [2] of 7 ± 0.07 µM. Moreover, the fraction remaining at 4 h, 5 µM in data set [3] (human plasma) worked out at 74%. The fraction remaining at 4 h, 5 µM in data set [3] (mouse plasma) is 85%. Besides, the IC50 in data set [4] was determined as 12 ± 0.26 µM.

In turn, `Cl.c1ccc2sc(-c3nc4ccc(C5=NCCCN5)cc4s3)nc2c1` [Compound 5g, 2-(Benzothiazole-2-yl)-6–(3,4,5,6-tetrahydropyrimidin-1-ium-2-yl)benzothiazole chloride] yielded a melting point greater than 300 °C. In data set [1], this molecule gave an IC50 of 18 ± 0.76 µM. Also, in data set [2], 13 ± 0.45 µM corresponded to half-maximal inhibition (IC50). The share remaining at 4 h, 5 µM in data set [3] (human plasma) worked out at 86%. In addition, the share remaining at 4 h, 5 µM in data set [3] (mouse plasma) was 81%. Further, it took 17 ± 0.93 µM to reach half-maximal inhibition in data set [4] (IC50).

`Cl.c1ccc2sc(-c3nc4ccc(C5=NCCCN5)cc4s3)cc2c1` [Compound 5e, 2-(Benzo[b]thiophen-2-yl)-6–(3,4,5,6-tetrahydropyrimidin-1-ium-2-yl)benzothiazole chloride] had a melting point greater than 300 °C. Also, in data set [1], the midpoint of inhibition, the IC50, lay at 10 ± 1.21 µM. Moreover, the 50% inhibitory concentration (IC50) in data set [2] was 9 ± 0.65 µM. For the same molecule, in data set [3] (human plasma), the fraction remaining at 4 h, 5 µM turned out to be 82%. In addition, the share remaining at 4 h, 5 µM in data set [3] (mouse plasma) came out at 77%. This molecule also returned an IC50 in data set [4] of 24 ± 7.63 µM.

For the molecule `Cl.N#Cc1ccc(-c2nc3ccc(C4=NCCCN4)cc3s2)cc1` [Compound 5b, 2–(4-Cyanophenyl)-6–(3,4,5,6-tetrahydropyrimidin-1-ium-2-yl)benzothiazole chloride], the melting point was greater than 300 °C. This molecule displayed a half-inhibitory concentration (IC50) in data set [1] greater than 50 µM. Moreover, the IC50 in data set [2] is greater than 50 µM. Also, in data set [3] (human plasma), the amount remaining at 4 h, 5 µM stood at 86%. In addition, the fraction remaining at 4 h, 5 µM in data set [3] (mouse plasma) amounted to 95%. Moreover, the IC50 in data set [4] is greater than 100 µM.

`Cl.c1ccc2nc(-c3nc4ccc(C5=NCCCN5)cc4s3)ccc2c1` [Compound 5d, 2-(Quinoline-2-yl)-6–(3,4,5,6-tetrahydropyrimidin-1-ium-2-yl)benzothiazole chloride] had a melting point greater than 300 °C. Also, inhibition in data set [1] was half-maximal at 11 ± 0.17 µM (IC50). The molecule further returned an IC50 in data set [2] of 9 ± 0.31 µM. Besides, in data set [3] (human plasma), the amount remaining at 4 h, 5 µM is 81%. In addition, the share remaining at 4 h, 5 µM in data set [3] (mouse plasma) worked out at 85%. The molecule also gave an IC50 in data set [4] of 32 ± 11.7 µM.

As to `c1ccc(-c2nc3cc(C4=NCCCN4)ccc3[nH]2)cc1` [Compound 6a, 2-Phenyl-5(6)–(3,4,5,6-tetrahydropyrimidin-1-ium-2-yl)benzimidazole chloride], the half-inhibitory concentration (IC50) in data set [1] turned out to be 7 ± 0.35 µM; in data set [2] it was 7 ± 0.3 µM; in data set [4], 12 ± 0.25 µM. The fraction remaining at 4 h, 5 µM in data set [3] (human plasma) stood at 73%; in data set [3] (mouse plasma), 79%.

For the molecule `c1ccc2cc(-c3nc4cc(C5=NCCCN5)ccc4[nH]3)ccc2c1` [Compound 6f, 2-(Naphthalene-2-yl)-5(6)–(3,4,5,6-tetrahydropyrimidin-1-ium-2-yl)benzimidazole chloride], the IC50 in data set [1] is greater than 50 µM; in data set [2] it was greater than 50 µM; in data set [4] it was greater than 100 µM. The share remaining at 4 h, 5 µM in data set [3] (human plasma) was found to be 106%.

Regarding `c1ccc2c(-c3nc4ccc(C5=NCCCN5)cc4[nH]3)c[nH]c2c1` [Compound 6e, 2-(1H-Indol-3-yl)-5(6)–(3,4,5,6-tetrahydropyrimidin-1-ium-2-yl)benzimidazole chloride], the IC50 in data set [1] is greater than 50 µM; in data set [2] it was greater than 50 µM; in data set [4], greater than 100 µM. The figures for the share remaining at 4 h, 5 µM in data set [3] (human plasma) and in data set [3] (mouse plasma) were 98% and 84%, respectively.

With `Cl.FC(F)(F)c1ccc(-c2nc3ccc(C4=NCCCN4)cc3s2)cc1` [Compound 5c, 2–(4-Trifluoromethylphenyl)-6–(3,4,5,6-tetrahydropyrimidin-1-ium-2-yl)benzothiazole chloride], the melting point was in the range of 279 to 283 °C. The IC50 in data set [1] was 15 ± 2.18 µM. For the same molecule, in data set [2], the IC50 was found to be 16 ± 4.14 µM. The amount remaining at 4 h, 5 µM in data set [3] (human plasma) came to 83%. Besides, the share remaining at 4 h, 5 µM in data set [3] (mouse plasma) came out at 94%. For the same molecule, half-maximal inhibition in data set [4] (IC50) required 21 ± 1.41 µM.

On to `FC(F)(F)c1ccc(-c2nc3cc(C4=NCCCN4)ccc3[nH]2)cc1` [Compound 6c, 2–(4-Trifluoromethylphenyl)-5(6)–(3,4,5,6-tetrahydropyrimidin-1-ium-2-yl)benzimidazole chloride], for which the IC50 was greater than 50 µM in data set [1], greater than 50 µM in data set [2] and greater than 100 µM in data set [4]. Further, the amount remaining at 4 h, 5 µM was 96% in data set [3] (human plasma) and 94% in data set [3] (mouse plasma).

On to `N#Cc1ccc(-c2nc3cc(C4=NCCCN4)ccc3[nH]2)cc1` [Compound 6b, 2–(4-Cyanophenyl)-5(6)–(3,4,5,6-tetrahydropyrimidin-1-ium-2-yl)benzimidazole chloride], for which the IC50 was greater than 50 µM in data set [1], greater than 50 µM in data set [2] and greater than 100 µM in data set [4]. For the same molecule, in data set [5], the “MDCKII-MDR1 Efflux ratio” value is on record as 1.13. Further, the share remaining at 4 h, 5 µM in data set [3] (human plasma) came out at 98%; in data set [3] (mouse plasma), 119%.

For orientation: IC50 means the concentration that gives 50% inhibition. For orientation: melting point means the temperature of the solid-liquid transition.
